Results published in ChEMBL document CHEMBL1201862, “PubChem BioAssay data set” (2004).
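In this assay, cells in 96-well plates receive the compound at five concentrations for 48 hours. Endpoints are linearly interpolated between the surrounding concentrations. At the GI50, growth is halved.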 The source made the active and inactive calls. Cut-off read from the data, not from the text of the source: active = GI50 up to about 1.1 µM and inactive = higher. Where a SMILES comes first, the peptide text is derived from it. [ ]: non-standard residue; d: D form. The star is where a group is joined. ξ: configuration not given here. ξF = NC(Cc1ccccc1)C(=O)O; Cbz = O=C(OCc1ccccc1)*; Aib = CC(C)(N)C(=O)O

Assays:
Assay in all cases: NCI tumour cell line growth inhibition, 48 h
HOP-92 = system: HOP-92
UO-31 = system: UO-31
EKVX = system: EKVX
HCT-15 = system: HCT-15
M14 = system: M14
RXF 393 = system: RXF 393
SK-MEL-2 = system: SK-MEL-2
SNB-19 = system: SNB-19
MDA-N = system: MDA-N
PC-3 = system: PC-3
NCI-H226 = system: NCI-H226
COLO 205 = system: COLO 205
CCRF-CEM = system: CCRF-CEM
Hs-578T = system: Hs-578T
IGROV-1 = system: IGROV-1
HCC 2998 = system: HCC 2998
A498 = system: A498

SMILES | GI50 (HOP-92) | GI50 (UO-31) | GI50 (EKVX) | GI50 (HCT-15) [µM] | GI50 (M14) | GI50 (RXF 393) | GI50 (SK-MEL-2) | GI50 (SNB-19) | GI50 (MDA-N) | GI50 (PC-3) | GI50 (NCI-H226) | GI50 (COLO 205) | GI50 (CCRF-CEM) | GI50 (Hs-578T) | GI50 (IGROV-1) | GI50 (HCC 2998) | GI50 (A498)
O=C(O)c1nn(-c2ccccc2)nc1-c1nn(-c2ccccc2)nc1C(=O)O | > 100 µM (inactive) | > 100 µM (inactive) | > 100 µM (inactive) | > 100 | > 100 µM (inactive) | > 100 µM (inactive) | > 100 µM (inactive) | > 100 µM (inactive) | > 100 µM (inactive) | > 100 µM (inactive) | > 100 µM (inactive) | > 100 µM (inactive) | > 100 µM (inactive) | > 100 µM (inactive) | > 100 µM (inactive) | > 100 µM (inactive) | 
O=[N+]([O-])c1ccc(Nc2nc3ccccc3s2)cc1 | 26.2 µM (inactive) | 18.5 µM (inactive) | 18.7 µM (inactive) | 28.8 | 26.7 µM (inactive) | 14.7 µM (inactive) | 25.5 µM (inactive) | 38.5 µM (inactive) |  | 16.3 µM (inactive) | 63 µM (inactive) |  |  | 29.9 µM (inactive) | 3.94 µM (inactive) | 25.2 µM (inactive) | 30.4 µM (inactive)
Cc1c(CNc2ccc(C(=O)NC(CCCNC(=O)c3ccccc3C(=O)O)C(=O)O)cc2)cnc2nc(N)nc(N)c12 (stereo not given) | 2.09 µM (inactive) | 0.001 µM (active) | 0.00248 µM (active) | 0.000453 | 0.000656 µM (active) | 0.382 µM (active) | 1.22 µM (inactive) | 0.01 µM (active) | 0.001 µM (active) | 2 µM (inactive) | 0.000617 µM (active) | 0.00671 µM (active) | 0.00057 µM (active) | 0.1 µM (active) | 0.000518 µM (active) | 0.000899 µM (active) | 
CN(C)C(=S)SCc1ccccc1 | 88.3 µM (inactive) | 53.7 µM (inactive) | > 100 µM (inactive) | > 100 | > 100 µM (inactive) | 3.85 µM (inactive) | 83.4 µM (inactive) | > 100 µM (inactive) | > 100 µM (inactive) |  | 54.2 µM (inactive) | > 100 µM (inactive) | > 100 µM (inactive) | > 100 µM (inactive) | > 100 µM (inactive) |  | 62.5 µM (inactive)
C[N+](C)(N)c1nc(N)c(C#N)c(C#N)c1C#N |  | > 10 µM (inactive) | > 10 µM (inactive) | > 10 | > 10 µM (inactive) | > 10 µM (inactive) | > 10 µM (inactive) | > 10 µM (inactive) | > 10 µM (inactive) | > 10 µM (inactive) | > 10 µM (inactive) | > 10 µM (inactive) | > 10 µM (inactive) | > 10 µM (inactive) | > 10 µM (inactive) | > 10 µM (inactive) | > 10 µM (inactive)
Cc1ccc(S(=O)(=O)N/N=C2/C3CCC(C3)C2c2ccccc2)cc1 (stereo not given) | > 100 µM (inactive) | > 100 µM (inactive) | > 100 µM (inactive) | > 100 | > 100 µM (inactive) |  | > 100 µM (inactive) | > 100 µM (inactive) | > 100 µM (inactive) | > 100 µM (inactive) | > 100 µM (inactive) | > 100 µM (inactive) | > 100 µM (inactive) | > 100 µM (inactive) | > 100 µM (inactive) |  | 
CCC(=O)ONC(=O)Cn1ccc([N+](=O)[O-])n1 | > 100 µM (inactive) | > 100 µM (inactive) | > 100 µM (inactive) |  | > 100 µM (inactive) | > 100 µM (inactive) |  | > 100 µM (inactive) | > 100 µM (inactive) | > 100 µM (inactive) | > 100 µM (inactive) | > 100 µM (inactive) | > 100 µM (inactive) | > 100 µM (inactive) | > 100 µM (inactive) | > 100 µM (inactive) | 
CC1(C)N=C(C2CCCN2C(=O)OCc2ccccc2)OC1=O (stereo not given) |  | > 100 µM (inactive) |  | > 100 | > 100 µM (inactive) | 30 µM (inactive) | > 100 µM (inactive) | > 100 µM (inactive) | > 100 µM (inactive) | > 100 µM (inactive) | > 100 µM (inactive) | > 100 µM (inactive) | > 100 µM (inactive) | > 100 µM (inactive) | > 100 µM (inactive) | > 100 µM (inactive) | > 100 µM (inactive)
[N-]=[N+]=NCc1cccc(Nc2cc(=O)[nH]c(=O)[nH]2)c1 | 74 µM (inactive) | > 100 µM (inactive) | > 100 µM (inactive) | > 100 | > 100 µM (inactive) | > 100 µM (inactive) | > 100 µM (inactive) | > 100 µM (inactive) | > 100 µM (inactive) |  | > 100 µM (inactive) | > 100 µM (inactive) | > 100 µM (inactive) | > 100 µM (inactive) | > 100 µM (inactive) | > 100 µM (inactive) | > 100 µM (inactive)
Fc1ccccc1C1SCc2nc3cc4ccccc4cc3n21 (stereo not given) |  | > 100 µM (inactive) | 67.6 µM (inactive) | 94.8 | > 100 µM (inactive) | 13.3 µM (inactive) | > 100 µM (inactive) | 32.5 µM (inactive) | 79.1 µM (inactive) | 78.3 µM (inactive) | 75.5 µM (inactive) | 86.7 µM (inactive) | > 100 µM (inactive) | 26.5 µM (inactive) | 62.5 µM (inactive) | 72.6 µM (inactive) | 
O=C(O)C1C(Br)(c2ccccc2)C1(Br)c1ccccc1 (stereo not given) | 42.7 µM (inactive) | 16.2 µM (inactive) | 86.7 µM (inactive) | 18.5 | 48.2 µM (inactive) | 19.5 µM (inactive) | 37.5 µM (inactive) | 27.4 µM (inactive) |  | 36.5 µM (inactive) | 27.2 µM (inactive) | 13.4 µM (inactive) |  | 37.8 µM (inactive) | 17.8 µM (inactive) | 22.6 µM (inactive) | 25.5 µM (inactive)
Cn1nc(C(=O)N2CC(CCl)c3c2cc(N)c2ccccc32)cc1NC(=O)Nc1cc(C(=O)N2CC(CCl)c3c2cc(N)c2ccccc32)nn1C (stereo not given) |  | 14.1 µM (inactive) | 29 µM (inactive) | 44.3 | 0.349 µM (active) | 0.0447 µM (active) | 0.13 µM (active) | 0.0621 µM (active) | 0.157 µM (active) | 0.165 µM (active) |  | 0.163 µM (active) | < 0.01 µM (active) |  |  | 1.21 µM (inactive) | 8.69 µM (inactive)
COC(=O)Cc1cc(O)c(C/C=C(\C)CC/C=C(\C)C(O)C(=O)C=C(C)C)cc1O (stereo not given) | 20.4 µM (inactive) | 21.6 µM (inactive) | 23.6 µM (inactive) |  | 26.3 µM (inactive) | 14.5 µM (inactive) | 24.6 µM (inactive) | 32 µM (inactive) | 35.5 µM (inactive) | 21.9 µM (inactive) | 26.3 µM (inactive) | 24.8 µM (inactive) | 2.93 µM (inactive) | 41 µM (inactive) | 23.3 µM (inactive) |  | 
COc1ccc(NC2=NCCO2)c2ccccc12 |  | > 10 µM (inactive) | > 10 µM (inactive) | > 10 | > 10 µM (inactive) | > 10 µM (inactive) | > 10 µM (inactive) | > 10 µM (inactive) | > 10 µM (inactive) | > 10 µM (inactive) | 3.03 µM (inactive) | > 10 µM (inactive) | > 10 µM (inactive) | > 10 µM (inactive) | > 10 µM (inactive) | > 10 µM (inactive) | > 10 µM (inactive)
O=C(O)Cc1cccc2c(=O)c3cccc([N+](=O)[O-])c3[nH]c12 | > 100 µM (inactive) | > 100 µM (inactive) |  | 71.8 | 27.8 µM (inactive) |  | 72.1 µM (inactive) | 43.3 µM (inactive) | > 100 µM (inactive) | > 100 µM (inactive) |  | 20.7 µM (inactive) | > 100 µM (inactive) | 36 µM (inactive) | > 100 µM (inactive) | 60.3 µM (inactive) | > 100 µM (inactive)
CCCCN=C(OC1C=CCCC1)SC (stereo not given) | 43.4 µM (inactive) | > 100 µM (inactive) | > 100 µM (inactive) | > 100 | > 100 µM (inactive) |  |  | > 100 µM (inactive) | > 100 µM (inactive) | > 100 µM (inactive) | > 100 µM (inactive) | > 100 µM (inactive) | > 100 µM (inactive) |  | > 100 µM (inactive) | > 100 µM (inactive) | 51.8 µM (inactive)
O=C(NCCCNC(=O)c1ccc2cc(O)c(O)cc2c1)c1ccc2cc(O)c(O)cc2c1 | 14.2 µM (inactive) | 34.1 µM (inactive) | 27.9 µM (inactive) | 19.9 | 45.7 µM (inactive) | 24.7 µM (inactive) | 13.1 µM (inactive) | 18.3 µM (inactive) | 31.7 µM (inactive) | 27.4 µM (inactive) | 18.4 µM (inactive) | 30.7 µM (inactive) | 27.1 µM (inactive) |  | 35.6 µM (inactive) | 18.6 µM (inactive) | 63.4 µM (inactive)
COc1ccccc1-c1cc(O)c2c(C)cc(C)nc2n1 | 31.8 µM (inactive) | 47.1 µM (inactive) | 67.5 µM (inactive) | 58.3 | 79.8 µM (inactive) | 63.7 µM (inactive) | 45.9 µM (inactive) | 73.3 µM (inactive) |  |  | > 100 µM (inactive) | 36.1 µM (inactive) | 47.9 µM (inactive) | > 100 µM (inactive) | 30.5 µM (inactive) | > 100 µM (inactive) | 39.6 µM (inactive)
COC(=O)C(C)(C)NC(=O)C(Cc1ccccc1)NC(=O)C(C)(C)NC(=O)OCc1ccccc1 (stereo not given) (Cbz-[Aib]-[ξF]-[Aib]-OMe) |  | > 100 µM (inactive) | > 100 µM (inactive) | > 100 | > 100 µM (inactive) |  |  | > 100 µM (inactive) | > 100 µM (inactive) | > 100 µM (inactive) |  | > 100 µM (inactive) | > 100 µM (inactive) |  | > 100 µM (inactive) | > 100 µM (inactive) | 24.3 µM (inactive)
